Measured values reported in paper PMC7801313, “Effect of lurbinectedin on the QTc interval in patients with advanced solid tumors: an exposure–response analysis” (Cancer Chemotherapy and Pharmacology, 2020).

What was measured:
[1] = system: patients; conditions: cited from earlier work
[2] = system: patients with advanced solid tumors; experiment: QT evaluation study, by time point ECG analysis; format: in vivo, human; conditions: before vs after prophylactic palonosetron 0.25 mg i.v., cycle 1 day 1
Description: This was a QT evaluation study (EudraCT No. 2015-000206-18; ClinicalTrials.gov: NCT02451007) performed at a subset of sites participating in a multicenter, open-label, exploratory, phase II basket clinical trial (EudraCT No: 2014-003773-42; ClinicaTrials.gov: NCT02454972) conducted in patients with selected advanced solid tumors. The schedule used in this QT evaluation study was that evaluated in the basket trial: lurbinectedin 3.2 mg/m^2 given as a 1-h i.v. infusion q3wk.
A screening ECG was collected between day -10 and day -2 before the first lurbinectedin infusion (day 1 of cycle 1) and transmitted to the central ECG laboratory to confirm the patient’s eligibility.
On day 1 of cycle 1, two baseline triplicate ECGs (three 10-s digital ECGs in close succession) were collected: one before administration of prophylactic medication or pre-dose 1, and the other after antiemetic prophylactic medication (palonosetron 0.25 mg i.v.) and before the start of the lurbinectedin infusion or pre-dose 2 (also on cycle 2).
In cycle 1 and cycle 2, the following triplicate ECGs were collected 5–10 min before their time-matched PK time points: 5 min before end of the lurbinectedin infusion (EOI), 30 min, 1, 3, 24, 72 (only on cycle 1), and 168 h after EOI.
A 12-lead automated digital ECG recorder [Mortara Instrument (Milwaukee, WI, USA) ELI-150 ECG 12-lead digital recorder] was provided by a third-party central ECG laboratory (eResearchTechnology, Inc., Philadelphia, PA, USA). Analysis and reporting of ECG data were performed by a limited number of skilled readers who were blinded to treatment time point. ECG review of a particular patient was performed by a single reader. Interval duration measurements were collected using computer-assisted caliper placements on three consecutive beats. A cardiologist then verified the interval durations and performed the morphology analysis, noting any T-U wave complex compatible with an effect on cardiac repolarization. The ECG analysis was conducted in Lead II or in Lead V5 if Lead II was not analyzable. If Lead V5 was not analyzable, then Lead V2 was used, and followed by the most appropriate lead if necessary. The mean of triplicate ECG measures at each time point for each patient was used for analyses.
Fridericia’s formula [6] is currently considered the most accurate method for correcting the effect of HR on QT interval [7], and was used as the main method for HR correction for QT (QTcF). Nevertheless, graphical inspection of QTcF and QT corrected by Bazett’s formula (QTcB) versus RR interval plots and statistical comparison of resulting squared linear regression slopes (R^2) was performed.
The primary endpoint was the change in QTc corrected by the Fridericia’s formula (ΔQTcF) between each scheduled post-baseline ECG time point and baseline at cycle 1. A patient was considered evaluable for the primary endpoint if he/she had baseline and one or more post-baseline ECG assessments.
Secondary endpoints were the ΔQTcF/lurbinectedin plasma concentration relationship, and change in other ECG parameters (i.e., HR, QRS, and PR).
The primary comparison was ΔQTcF at each ECG time point. A non-inferiority criterion of 20 ms was used to establish the absence of post-baseline QTc prolongation when compared to baseline. An analysis of variance model with mixed effects was fitted, with ΔQTc data as the dependent variable and ECG time point as the fixed effects, and patient as random effect.
Using the estimated least square means (LSM) and intra-patient standard deviation (Std) obtained from this model, a two-sided 90% confidence interval (CI) was calculated for each LSM ΔQTc. Non-inferiority was to be concluded if the upper bound (UB) of the one-sided 95% CI fell below 20 ms at each ECG time point.

COc1cc2c(cc1O)CCN[C@]21CS[C@@H]2c3c(OC(C)=O)c(C)c4c(c3[C@H](COC1=O)N1[C@@H]2[C@H]2c3c(cc(C)c(OC)c3O)C[C@@H]([C@@H]1O)N2C)OCO4 [trabectedin]
heart rate change ([1]; 3-h i.v. infusion, largest increases at 4 h after start of infusion): heart rate increased slightly | cardiac risk profile [1]: low cardiac risk profile

O=C1c2cccc3c2[C@H](CCC3)CN1[C@@H]1CN2CCC1CC2 [prophylactic medication, palonosetron, reference compound]
difference between mean pre-dose 1 and mean pre-dose 2 QTcF [2]: 1.3 ms
